Measurements as given in ChEMBL document CHEMBL1201862, “PubChem BioAssay data set” (2004).
Activity calls are given as the source filed them.

Tests used:
[1] = target: T1, Microphthalmia-associated transcription factor (Homo sapiens, UniProt O75030); experiment: reducers of TRPM1 reporter luminescence, concentration series – cell-based, SK-MEL-5, cherry-picked, set 3, MITF inhibitor project, dose response (AID 493073); type: functional;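 further: SK-MEL-5 melanoma cells with luciferase driven by the MITF target TRPM1 promoter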
T1 sequence (O75030 whole entry): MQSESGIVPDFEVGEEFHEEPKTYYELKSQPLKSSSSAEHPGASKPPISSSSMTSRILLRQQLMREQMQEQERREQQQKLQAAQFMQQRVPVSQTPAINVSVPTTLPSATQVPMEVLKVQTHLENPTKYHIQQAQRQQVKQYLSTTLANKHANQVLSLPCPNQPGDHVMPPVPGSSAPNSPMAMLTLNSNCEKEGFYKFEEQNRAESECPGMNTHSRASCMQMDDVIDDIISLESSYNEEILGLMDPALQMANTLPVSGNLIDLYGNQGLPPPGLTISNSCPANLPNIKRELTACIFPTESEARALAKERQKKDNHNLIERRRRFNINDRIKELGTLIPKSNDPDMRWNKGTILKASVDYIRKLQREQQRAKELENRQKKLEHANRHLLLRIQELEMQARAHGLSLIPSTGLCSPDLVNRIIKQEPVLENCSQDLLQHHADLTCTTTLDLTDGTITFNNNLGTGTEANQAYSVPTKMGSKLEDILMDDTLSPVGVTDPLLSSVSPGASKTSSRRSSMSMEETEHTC

[2] = HEK-293T cell viability reduction – luminescence, B-cell screen hits, cytotoxicity control for BCR NF-kB inhibitor project, dose response (AID 489021); type: functional, cell-based;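 further: HEK-293T cells carrying an NF-kB luciferase reporter; cells exposed to compound for about 14 hours before viability readout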
[3] = target: T2, Coagulation factor XII (Homo sapiens, UniProt P00748); type: functional;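 further: activated factor XIIa alpha cleaving a fluorogenic AMC peptide substrate; inhibitor potency from loss of enzyme activity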
T2 sequence (P00748 whole entry): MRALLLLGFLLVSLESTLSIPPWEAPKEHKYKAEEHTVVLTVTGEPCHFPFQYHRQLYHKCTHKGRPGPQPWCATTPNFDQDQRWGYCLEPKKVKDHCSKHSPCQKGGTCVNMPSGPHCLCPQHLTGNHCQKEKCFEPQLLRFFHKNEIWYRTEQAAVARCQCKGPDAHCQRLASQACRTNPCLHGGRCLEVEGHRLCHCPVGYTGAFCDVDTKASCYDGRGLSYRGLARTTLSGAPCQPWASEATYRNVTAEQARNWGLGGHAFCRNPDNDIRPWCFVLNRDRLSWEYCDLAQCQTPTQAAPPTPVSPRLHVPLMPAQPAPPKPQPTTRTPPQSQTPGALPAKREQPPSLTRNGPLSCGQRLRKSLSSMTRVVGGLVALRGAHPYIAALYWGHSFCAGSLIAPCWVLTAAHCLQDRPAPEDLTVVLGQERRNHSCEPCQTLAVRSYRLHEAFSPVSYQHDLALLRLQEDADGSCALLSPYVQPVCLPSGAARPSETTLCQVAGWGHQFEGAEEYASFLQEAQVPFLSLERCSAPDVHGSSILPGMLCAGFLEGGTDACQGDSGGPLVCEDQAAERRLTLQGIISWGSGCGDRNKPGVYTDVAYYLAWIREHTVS

[4] = target: Luciferin 4-monooxygenase (Photinus pyralis, UniProt P08659); experiment: inhibition of purified Photinus pyralis luciferase – biochemical, luminescence, dose response (AID 1891)
[5] = Luminescence Cell-Based Dose Confirmation HTS to Identify Inhibitors of Platelet Dense Granule Release. [Related pubchem assays: 1663 (Primary HTS), 1678 (Summary of Project)]; type: functional
[6] = target: T3, Short transient receptor potential channel 4 (Mus musculus, UniProt Q9QUQ5); experiment: calcium entry via TRPC4 opening agents – cell-based, HEK293 TRPC4/mu-opioid, Fluo-4 calcium, dose response (AID 434937); type: functional
T3 sequence (Q9QUQ5 whole entry): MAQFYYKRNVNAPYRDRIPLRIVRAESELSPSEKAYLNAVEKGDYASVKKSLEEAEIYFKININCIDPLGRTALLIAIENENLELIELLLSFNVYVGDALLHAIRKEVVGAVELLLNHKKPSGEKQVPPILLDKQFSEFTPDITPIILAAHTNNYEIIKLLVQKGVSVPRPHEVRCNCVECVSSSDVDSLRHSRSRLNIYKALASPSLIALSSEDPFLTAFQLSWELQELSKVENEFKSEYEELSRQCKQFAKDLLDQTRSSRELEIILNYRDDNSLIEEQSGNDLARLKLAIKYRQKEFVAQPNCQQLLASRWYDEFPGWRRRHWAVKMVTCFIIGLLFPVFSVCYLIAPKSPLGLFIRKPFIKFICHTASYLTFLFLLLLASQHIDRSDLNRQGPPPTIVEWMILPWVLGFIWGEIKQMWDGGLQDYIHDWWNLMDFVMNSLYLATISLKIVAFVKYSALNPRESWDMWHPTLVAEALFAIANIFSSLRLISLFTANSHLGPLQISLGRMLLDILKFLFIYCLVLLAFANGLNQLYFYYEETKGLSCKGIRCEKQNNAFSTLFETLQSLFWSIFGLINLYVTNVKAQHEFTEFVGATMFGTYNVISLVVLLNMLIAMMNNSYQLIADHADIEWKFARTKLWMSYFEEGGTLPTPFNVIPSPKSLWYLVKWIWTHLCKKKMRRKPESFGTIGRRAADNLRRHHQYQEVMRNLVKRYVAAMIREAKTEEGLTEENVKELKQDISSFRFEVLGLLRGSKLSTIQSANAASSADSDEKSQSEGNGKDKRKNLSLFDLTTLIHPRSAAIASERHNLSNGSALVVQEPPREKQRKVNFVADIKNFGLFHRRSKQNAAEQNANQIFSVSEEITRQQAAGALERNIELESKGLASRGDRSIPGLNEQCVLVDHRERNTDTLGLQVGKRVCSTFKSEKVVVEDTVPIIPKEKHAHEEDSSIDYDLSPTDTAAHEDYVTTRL

[7] = target: T4, Estrogen receptor (Homo sapiens, UniProt P03372);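 further: potency for inhibiting coactivator peptide recruitment to the receptor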
T4 sequence (P03372 whole entry): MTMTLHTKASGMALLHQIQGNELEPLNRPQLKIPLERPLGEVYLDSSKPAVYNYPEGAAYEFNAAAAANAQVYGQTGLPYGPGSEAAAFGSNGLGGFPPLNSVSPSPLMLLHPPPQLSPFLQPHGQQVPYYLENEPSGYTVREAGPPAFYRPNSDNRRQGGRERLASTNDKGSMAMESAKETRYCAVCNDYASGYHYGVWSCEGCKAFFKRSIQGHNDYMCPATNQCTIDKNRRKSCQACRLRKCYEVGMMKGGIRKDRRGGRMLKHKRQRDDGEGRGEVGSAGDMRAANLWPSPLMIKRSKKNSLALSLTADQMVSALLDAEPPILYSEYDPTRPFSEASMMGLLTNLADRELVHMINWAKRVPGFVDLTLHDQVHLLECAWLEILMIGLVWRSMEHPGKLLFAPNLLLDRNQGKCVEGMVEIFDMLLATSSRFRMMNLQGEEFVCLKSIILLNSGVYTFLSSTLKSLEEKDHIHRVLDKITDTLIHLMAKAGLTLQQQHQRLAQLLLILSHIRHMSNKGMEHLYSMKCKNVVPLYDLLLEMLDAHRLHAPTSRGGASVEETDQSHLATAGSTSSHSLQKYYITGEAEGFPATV

[8] = cells; type: functional
[9] = target: Induced myeloid leukemia cell differentiation protein Mcl-1 (Homo sapiens, UniProt Q07820); type: functional
[10] = target: T5, Leucine aminopeptidase (Plasmodium falciparum 3D7, UniProt Q8IL11); experiment: P. falciparum M17LAP inhibitors, primary screen, biochemical, fluorogenic H-Leu-NHMec substrate, 1536-well (AID 1619); type: functional
T5 sequence (Q8IL11 whole entry): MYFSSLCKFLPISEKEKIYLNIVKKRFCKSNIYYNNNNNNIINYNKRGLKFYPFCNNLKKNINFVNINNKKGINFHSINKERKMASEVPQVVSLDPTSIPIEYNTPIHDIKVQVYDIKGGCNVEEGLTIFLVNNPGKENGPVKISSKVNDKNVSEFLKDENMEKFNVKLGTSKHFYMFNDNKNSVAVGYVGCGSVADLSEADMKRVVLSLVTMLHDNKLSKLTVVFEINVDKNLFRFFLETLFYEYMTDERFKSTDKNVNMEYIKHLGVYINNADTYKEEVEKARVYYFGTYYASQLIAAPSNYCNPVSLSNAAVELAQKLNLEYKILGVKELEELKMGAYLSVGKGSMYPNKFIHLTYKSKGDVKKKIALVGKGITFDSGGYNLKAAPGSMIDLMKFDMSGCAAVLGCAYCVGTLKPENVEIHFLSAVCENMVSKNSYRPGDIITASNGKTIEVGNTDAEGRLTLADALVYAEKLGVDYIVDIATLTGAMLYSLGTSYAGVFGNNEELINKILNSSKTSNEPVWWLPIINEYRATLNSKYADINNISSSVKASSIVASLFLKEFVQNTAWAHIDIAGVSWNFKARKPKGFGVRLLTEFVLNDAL

[11] = target: Cytochrome P450 2C9 (Homo sapiens, UniProt P11712)
[12] = target: T6, Cytochrome P450 1A2 (Homo sapiens, UniProt P05177);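 further: PubChem cytochrome P450 panel assay, CYP1A2 panel member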
T6 sequence (P05177 whole entry): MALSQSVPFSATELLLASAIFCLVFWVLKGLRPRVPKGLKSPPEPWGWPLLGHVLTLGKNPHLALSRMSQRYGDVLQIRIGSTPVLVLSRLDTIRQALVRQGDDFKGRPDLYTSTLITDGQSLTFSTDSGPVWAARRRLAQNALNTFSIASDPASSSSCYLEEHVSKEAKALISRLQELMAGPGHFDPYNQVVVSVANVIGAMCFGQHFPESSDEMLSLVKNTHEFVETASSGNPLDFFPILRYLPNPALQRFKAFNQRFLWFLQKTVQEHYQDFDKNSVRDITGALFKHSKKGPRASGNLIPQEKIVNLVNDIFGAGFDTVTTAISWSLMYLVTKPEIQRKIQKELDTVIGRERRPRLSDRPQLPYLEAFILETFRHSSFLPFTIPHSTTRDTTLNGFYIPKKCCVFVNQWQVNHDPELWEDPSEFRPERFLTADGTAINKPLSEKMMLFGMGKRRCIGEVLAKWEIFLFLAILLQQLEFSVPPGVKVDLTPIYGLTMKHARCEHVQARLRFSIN

[13] = luciferase reporter signal suppression in cells – H4 neuroglioma cells, luminescence, dose response (AID 1990); type: functional, cell-based
[14] = Luminescence Cell-Based Dose Response HTS to Identify Inhibitors of 5'UTR Stem-Loop Driven Prion Protein mRNA Translation in H4 Neuroglioblastoma Cells. [Related pubchem assays: 1827 (Project Summary), 1813 (Primary HTS)]; type: functional
[15] = alpha-synuclein stem-loop luciferase translation blockers – H4 neuroglioma cells, luminescence, confirmation (AID 1988); type: functional, cell-based

Chain of Induced myeloid leukemia cell differentiation protein Mcl-1 (Q07820 whole entry): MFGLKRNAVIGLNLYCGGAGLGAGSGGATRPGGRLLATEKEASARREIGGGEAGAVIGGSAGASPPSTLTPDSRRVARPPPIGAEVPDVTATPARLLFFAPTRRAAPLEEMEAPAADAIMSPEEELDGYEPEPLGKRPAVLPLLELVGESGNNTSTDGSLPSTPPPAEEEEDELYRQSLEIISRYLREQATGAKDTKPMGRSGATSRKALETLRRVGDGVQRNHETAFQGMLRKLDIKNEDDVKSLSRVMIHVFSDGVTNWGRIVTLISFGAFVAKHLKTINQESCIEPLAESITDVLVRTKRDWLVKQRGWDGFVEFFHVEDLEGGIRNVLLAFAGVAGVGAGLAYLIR
Chain of Luciferin 4-monooxygenase (P08659 whole entry): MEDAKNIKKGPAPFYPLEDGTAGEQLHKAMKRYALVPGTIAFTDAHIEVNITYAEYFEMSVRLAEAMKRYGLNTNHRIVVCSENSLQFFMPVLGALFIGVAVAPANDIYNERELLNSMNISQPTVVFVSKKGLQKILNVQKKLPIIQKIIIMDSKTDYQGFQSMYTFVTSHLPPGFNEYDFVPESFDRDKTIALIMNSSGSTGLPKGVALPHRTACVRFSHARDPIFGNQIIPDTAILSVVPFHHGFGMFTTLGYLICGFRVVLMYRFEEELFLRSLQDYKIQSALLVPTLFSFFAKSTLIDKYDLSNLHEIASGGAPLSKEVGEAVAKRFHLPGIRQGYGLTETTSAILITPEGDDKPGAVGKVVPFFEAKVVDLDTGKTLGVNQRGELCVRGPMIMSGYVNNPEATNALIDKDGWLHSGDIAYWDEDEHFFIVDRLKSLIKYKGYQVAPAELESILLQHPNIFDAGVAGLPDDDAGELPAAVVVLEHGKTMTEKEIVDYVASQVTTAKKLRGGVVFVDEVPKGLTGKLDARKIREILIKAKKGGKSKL
Chain of Cytochrome P450 2C9 (P11712 whole entry): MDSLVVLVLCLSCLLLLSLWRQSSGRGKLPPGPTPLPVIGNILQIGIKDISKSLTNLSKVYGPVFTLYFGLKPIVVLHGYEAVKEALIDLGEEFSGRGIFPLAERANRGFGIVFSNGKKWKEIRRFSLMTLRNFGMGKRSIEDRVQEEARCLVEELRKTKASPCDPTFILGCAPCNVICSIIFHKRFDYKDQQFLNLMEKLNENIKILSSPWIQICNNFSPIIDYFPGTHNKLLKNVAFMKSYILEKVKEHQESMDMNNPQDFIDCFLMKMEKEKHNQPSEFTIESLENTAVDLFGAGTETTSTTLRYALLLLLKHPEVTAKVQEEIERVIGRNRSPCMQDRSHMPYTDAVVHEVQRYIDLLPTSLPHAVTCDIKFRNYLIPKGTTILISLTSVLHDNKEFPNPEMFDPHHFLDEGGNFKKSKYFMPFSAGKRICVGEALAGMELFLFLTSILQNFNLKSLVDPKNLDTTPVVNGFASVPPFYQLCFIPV

Compound: O=C(CCl)N1CCN(S(=O)(=O)c2ccc3c(c2)CCC3)CC1
- AC50 [1]: 20.7 µM (active)
- IC50 [2]: > 80 µM (inactive)

Compound: O=C(CSc1nc2ccccc2s1)NC1CCCC1
- IC50 [3]: > 50 µM (inactive)

Compound: COc1cccc(C(c2sc3nc(C)nn3c2O)N2CCN(c3ccccc3F)CC2)c1 (stereo not drawn)
- EC50 [4]: > 112 µM (not active)
- EC50 [5]: > 112 µM (not active)

Compound: CC1(C)CC(CCNCc2ccc3c(c2)OCO3)(Cc2ccccc2)CCO1 (stereo not drawn)
- EC50 [6]: 6.68 µM (active)

Compound: CCOC(=O)c1c(-c2ccc(C)o2)csc1N
- EC50 [4]: > 112 µM (not active)
- EC50 [5]: > 112 µM (not active)

Compound: NC(=S)n1[nH]c(-c2ccc([N+](=O)[O-])cc2)c(/N=N/c2ccc(O)cc2)c1=O
- IC50 [7]: 11 µM (active)
- IC50 [8]: 49.6 µM (active)
- IC50 [9]: 3.47 µM (active)

Compound: O=C1NC(=O)N(Cc2ccco2)C(=O)/C1=C/NC1CC1
- EC50 [4]: > 112 µM (not active)
- EC50 [5]: > 112 µM (not active)

Compound: CN1CCN(c2ccc(NC(=O)COc3cccc4ccccc34)cc2)CC1
- EC50 [6]: 2.99 µM (active)

Compound: COc1ccc(S(=O)(=O)NCC(c2cccnc2)N2CCN(C)CC2)cc1C (stereo not drawn)
- EC50 [4]: > 112 µM (not active)
- EC50 [5]: > 112 µM (not active)

Compound: O=C1NC(=O)N(Cc2ccccc2)C(=O)/C1=C\c1ccco1
- IC50 [10]: 62.3 µM (active)

Compound: COc1ccc(-c2ccc(C)cc2)cc1[C@H]1[C@H]2C=CC[C@@H](C)[C@@H]2C(=O)N1Cc1ccccc1
- IC50 [2]: > 80 µM (inactive)

Compound: Cc1ccc(-c2c(C#N)c(N)n(-c3ccccc3)c(=O)c2C#N)cc1
- EC50 [4]: > 112 µM (not active)
- EC50 [5]: 3.25 µM (active)
- AC50 [11]: 7.94 µM (inconclusive)
- AC50 [12]: 11.2 µM (inconclusive)

Compound: Cc1ccc(-n2nc(C)cc2NC(=O)COc2cc(C)cc3oc(=O)c4c(c23)CCC4)cc1
- IC50 [9]: < 0.4 µM (not active)

Compound: N[C@@H](Cc1cc(I)c(Oc2ccc(O)c(I)c2)c(I)c1)C(=O)O [LIOTHYRONINE SODIUM]
- IC50 [9]: 14.7 µM (active)

Compound: CCOc1c(Br)cc(CNc2nc[nH]n2)cc1OC
- IC50 [10]: 22.7 µM (active)

Compound: Cc1ccc2sc(NC(=O)C3CC3)nc2c1C
- EC50 [4]: > 112 µM (not active)
- EC50 [5]: > 112 µM (not active)

Compound: O=C1CN(Cc2ccccc2)/C(=N\Cc2ccco2)S1
- IC50 [3]: > 50 µM (inactive)

Compound: CCCN(CCC)CCCNC(=O)C1CCC(CNS(=O)(=O)c2cccc3nsnc23)CC1 (stereo not drawn)
- EC50 [6]: 0.531 µM (active)

Compound: NCCNC(=O)c1c(NC(=O)c2ccccc2)sc2c1CCCC2
- EC50 [6]: 6.68 µM (active)

Compound: Cc1nc2cc(-c3ccccc3)nn2c(C)c1CCC(=O)N1CCC2(CC1)OCCO2
- EC50 [13]: < 0.1 µM (active)
- EC50 [14]: 14.6 µM (active)
- EC50 [15]: 0.259 µM (active)
- IC50 [2]: > 80 µM (inactive)

Compound: CC(C)(C)SCCNS(=O)(=O)c1ccccc1
- IC50 [3]: > 50 µM (inactive)

Compound: O=C(c1cccnc1)C1CCCN(Cc2nc(-c3cnccn3)no2)C1 (stereo not drawn)
- IC50 [3]: > 50 µM (inactive)

Compound: CCOC(=O)C1CCN(c2ncnc3c2cnn3-c2ccc(OC)cc2)CC1
- IC50 [2]: > 80 µM (inactive)

Compound: Cc1ccc(-c2nn3c(C)nnc3c3ccccc23)cc1S(=O)(=O)NC(C)(C)CO
- IC50 [2]: > 80 µM (inactive)
